Experimental data from US20250059171A1 (Hoffmann-La Roche Inc., priority 2021, published 2025).

What was measured:
MERS-CoV 3CLpro = MERS-CoV 3CLpro (Middle East respiratory syndrome-related coronavirus, UniProt K9N7C7); assay: biochemical
SARS-CoV-2 3CLpro = SARS-CoV-2 3CLpro (Severe acute respiratory syndrome coronavirus 2, UniProt P0DTD1); assay: biochemical
SARS-CoV 3CLpro = SARS-CoV 3CLpro (Severe acute respiratory syndrome coronavirus, UniProt P0C6X7); assay: biochemical
HCoV-229E 3CLpro = HCoV-229E 3CLpro (Human coronavirus 229E, UniProt P0C6X1); assay: HCoV-229E 3CLpro inhibition assay (FRET); type: biochemical
HCoV-229E 3CLpro, sequence (P0C6X1 2966-3267): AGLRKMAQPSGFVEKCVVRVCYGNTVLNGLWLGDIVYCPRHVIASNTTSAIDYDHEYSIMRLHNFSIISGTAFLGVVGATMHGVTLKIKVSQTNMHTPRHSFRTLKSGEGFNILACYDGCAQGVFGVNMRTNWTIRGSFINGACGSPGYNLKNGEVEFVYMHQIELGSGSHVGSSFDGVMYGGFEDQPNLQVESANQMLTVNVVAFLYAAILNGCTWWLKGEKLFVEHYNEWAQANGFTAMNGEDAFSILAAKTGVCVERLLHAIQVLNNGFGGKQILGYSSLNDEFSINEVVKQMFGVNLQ

MERS-CoV 3CLpro, sequence (K9N7C7 3248-3553): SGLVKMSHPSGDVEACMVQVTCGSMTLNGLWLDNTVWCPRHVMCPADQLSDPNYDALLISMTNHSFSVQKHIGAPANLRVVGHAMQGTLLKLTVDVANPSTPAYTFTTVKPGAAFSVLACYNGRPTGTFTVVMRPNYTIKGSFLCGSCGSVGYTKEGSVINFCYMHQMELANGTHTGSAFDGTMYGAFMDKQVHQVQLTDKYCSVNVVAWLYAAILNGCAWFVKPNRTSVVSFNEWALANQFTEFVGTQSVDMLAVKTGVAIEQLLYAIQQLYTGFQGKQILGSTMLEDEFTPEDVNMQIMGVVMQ

Row | Structure (SMILES) | IC50 (MERS-CoV 3CLpro) [µM] | IC50 (SARS-CoV-2 3CLpro) [µM] | IC50 (SARS-CoV 3CLpro) [µM] | IC50 (HCoV-229E 3CLpro) [µM]
1 | CC(C)(C)[C@H](NC(=O)C1CC1(F)F)C(=O)N1C[C@@H]2CCC[C@@H]2[C@H]1C(=O)NN(C[C@@H]1CCNC1=O)C(=O)[C@H](F)Cl (mixture of isomers) [Example 34, Rac-2,2-difluoro-N-[(1S)-2,2-dimethyl-1-[(3S,3aS,6aR)-3-[[[(2R)-2-chloro-2-fluoro-acetyl]-[[(3S)-2-oxopyrrolidin-3-yl]methyl]amino]carbamoyl]-3,3a,4,5,6,6a-hexahydro-1H-cyclopenta[c]pyrrole-2-carbonyl]propyl]cyclopropanecarboxamide] | 0.066 | 0.008 | 0.012 | 0.023
2 | CC(F)C(=O)N[C@H](C(=O)N1C[C@@H]2CCC[C@@H]2[C@H]1C(=O)NN(C[C@@H]1CCNC1=O)C(=O)[C@H](F)Cl)C(C)(C)C (mixture of isomers) [Example 36, Rac-2-fluoro-N-[(1S)-2,2-dimethyl-1-[(3S,3aS,6aR)-3-[[[(2R)-2-chloro-2-fluoro-acetyl]-[[(3S)-2-oxopyrrolidin-3-yl]methyl]amino]carbamoyl]-3,3a,4,5,6,6a-hexahydro-1H-cyclopenta[c]pyrrole-2-carbonyl]propyl]propanamide] | 0.093 | 0.007 | 0.012 | 0.034
3 | CC[C@H](C)[C@H](NC(=O)C1CC1(F)F)C(=O)N1C[C@@H]2CCC[C@@H]2[C@H]1C(=O)NN(C[C@@H]1CCNC1=O)C(=O)[C@H](F)Cl (mixture of isomers) [Example 41, Rac-2,2-difluoro-N-[(1S,2S)-2-methyl-1-[(3S,3aS,6aR)-3-[[[(2R)-2-chloro-2-fluoro-acetyl]-[[(3S)-2-oxopyrrolidin-3-yl]methyl]amino]carbamoyl]-3,3a,4,5,6,6a-hexahydro-1H-cyclopenta[c]pyrrole-2-carbonyl]butyl]cyclopropanecarboxamide] | 0.221 | 0.007 | 0.033 | 0.068
4 | CC[C@H](C)[C@H](NC(=O)C(C)F)C(=O)N1C[C@@H]2CCC[C@@H]2[C@H]1C(=O)NN(C[C@@H]1CCNC1=O)C(=O)[C@H](F)Cl (mixture of isomers) [Example 43, Rac-2-fluoro-N-[(1S,2S)-2-methyl-1-[(3S,3aS,6aR)-3-[[[(2R)-2-chloro-2-fluoro-acetyl]-[[(3S)-2-oxopyrrolidin-3-yl]methyl]amino]carbamoyl]-3,3a,4,5,6,6a-hexahydro-1H-cyclopenta[c]pyrrole-2-carbonyl]butyl]propanamide] | 0.058 | 0.008 | 0.011 | 0.022
5 | CC[C@H](C)[C@H](NC(=O)C1CC1(F)F)C(=O)N1C[C@H]2[C@@H]([C@H]1C(=O)NN(C[C@@H]1CCNC1=O)C(=O)[C@H](F)Cl)C2(C)C (mixture of isomers) [Example 53, Rac-2,2-difluoro-N-[(1S,2S)-2-methyl-1-[(1R,2S,5S)-6,6-dimethyl-2-[[[(2R)-2-chloro-2-fluoro-acetyl]-[[(3S)-2-oxopyrrolidin-3-yl]methyl]amino]carbamoyl]-3-azabicyclo[3.1.0]hexane-3-carbonyl]butyl]cyclopropanecarboxamide] | 0.087 | 0.008 | 0.013 | 0.032
6 | CC[C@H](C)[C@H](NC(=O)C(C)F)C(=O)N1C[C@H]2[C@@H]([C@H]1C(=O)NN(C[C@@H]1CCNC1=O)C(=O)[C@H](F)Cl)C2(C)C (mixture of isomers) [Example 56, Rac-2-fluoro-N-[(1S,2S)-2-methyl-1-[(1R,2S,5S)-6,6-dimethyl-2-[[[(2R)-2-chloro-2-fluoro-acetyl]-[[(3S)-2-oxopyrrolidin-3-yl]methyl]amino]carbamoyl]-3-azabicyclo[3.1.0]hexane-3-carbonyl]butyl]propanamide] | 0.052 | 0.008 | 0.011 | 0.018
7 | CC[C@H](C)[C@H](NC(=O)C1CC1(F)F)C(=O)N1C[C@H]2[C@@H]([C@H]1C(=O)NN(C[C@@H]1CCNC1=O)C(=O)[C@@H](F)Cl)C2(C)C (mixture of isomers) [Example 111, Rac-2,2-difluoro-N-[(1S,2S)-2-methyl-1-[(1R,2S,5S)-6,6-dimethyl-2-[[[(2S)-2-chloro-2-fluoro-acetyl]-[[(3S)-2-oxopyrrolidin-3-yl]methyl]amino]carbamoyl]-3-azabicyclo[3.1.0]hexane-3-carbonyl]butyl]cyclopropanecarboxamide] | 0.096 | 0.016 | 0.028 | 0.037
8 | CC(C)(C)[C@H](NC(=O)C(F)(F)F)C(=O)N1CC2(CC2)C[C@H]1C(=O)NN(C[C@@H]1CCNC1=O)C(=O)[C@H](F)Cl [Example 6, N-[(1S)-1-[(6S)-6-[[[(2R)-2-chloro-2-fluoro-acetyl]-[[(3S)-2-oxopyrrolidin-3-yl]methyl]amino]carbamoyl]-5-azaspiro[2.4]heptane-5-carbonyl]-2,2-dimethyl-propyl]-2,2,2-trifluoro-acetamide] | 0.109 |  | 0.014 | 0.042
9 | CC1(C)[C@@H]2[C@@H](C(=O)NN(C[C@@H]3CCNC3=O)C(=O)[C@H](F)Cl)N(C(=O)COc3cc(F)cc(F)c3)C[C@@H]21 [Example 17, (1R,2S,5S)—N′-[(2R)-2-chloro-2-fluoro-acetyl]-3-[2-(3,5-difluorophenoxy)acetyl]-6,6-dimethyl-N′—[[(3S)-2-oxopyrrolidin-3-yl]methyl]-3-azabicyclo[3.1.0]hexane-2-carbohydrazide] | 0.408 | 0.121 | 0.429 | 
10 | CC(C)(C)[C@H](NC(=O)C(F)(F)F)C(=O)N1C[C@H]2[C@@H]([C@H]1C(=O)NN(C[C@@H]1CCNC1=O)C(=O)CCl)C2(C)C [Example 18, N-[(1S)-1-[(1R,2S,5S)-2-[[(2-chloroacetyl)-[[(3S)-2-oxopyrrolidin-3-yl]methyl]amino]carbamoyl]-6,6-dimethyl-3-azabicyclo[3.1.0]hexane-3-carbonyl]-2,2-dimethyl-propyl]-2,2,2-trifluoro-acetamide] | 0.408 |  | 0.429 | 
11 | CC[C@H](C)[C@H](NC(=O)C(F)(F)C(F)(F)F)C(=O)N1C[C@@H]2CCC[C@@H]2[C@H]1C(=O)NN(C[C@@H]1CCNC1=O)C(=O)[C@H](F)Cl [Example 50, N-[(1S,2S)-1-[(3S,3aS,6aR)-3-[[[(2R)-2-chloro-2-fluoro-acetyl]-[[(3S)-2-oxopyrrolidin-3-yl]methyl]amino]carbamoyl]-3,3a,4,5,6,6a-hexahydro-1H-cyclopenta[c]pyrrole-2-carbonyl]-2-methyl-butyl]-2,2,3,3,3-pentafluoro-propanamide] | 0.042 |  | 0.008 | 0.017
12 | CC1(C)[C@@H]2[C@@H](C(=O)NN(C[C@@H]3CCNC3=O)C(=O)[C@H](F)Cl)N(C(=O)[C@H](CC34CC(C3)C4)NC(=O)C(F)(F)F)C[C@@H]21 [Example 65, N-[(1S)-1-(1-bicyclo[1.1.1]pentanylmethyl)-2-[(1R,2S,5S)-2-[[[(2R)-2-chloro-2-fluoro-acetyl]-[[(3S)-2-oxopyrrolidin-3-yl]methyl]amino]carbamoyl]-6,6-dimethyl-3-azabicyclo[3.1.0]hexan-3-yl]-2-oxo-ethyl]-2,2,2-trifluoro-acetamide] |  |  |  | 0.025
13 | CCC(CC)[C@H](NC(=O)C(F)(F)F)C(=O)N1C[C@H]2[C@@H]([C@H]1C(=O)NN(C[C@@H]1CCNC1=O)C(=O)[C@H](F)Cl)C2(C)C [Example 84, N-[(1S)-1-[(1R,2S,5S)-2-[[[(2R)-2-chloro-2-fluoro-acetyl]-[[(3S)-2-oxopyrrolidin-3-yl]methyl]amino]carbamoyl]-6,6-dimethyl-3-azabicyclo[3.1.0]hexane-3-carbonyl]-2-ethyl-butyl]-2,2,2-trifluoro-acetamide] | 0.087 |  | 0.014 | 0.03
14 | O=C1NCC[C@H]1CN(NC(=O)[C@@H]1[C@H]2CCC[C@H]2CN1C(=O)COc1cccc(F)c1)C(=O)[C@H](F)Cl [Example 88a, (3S,3aS,6aR)—N′-[(2R)-2-chloro-2-fluoro-acetyl]-2-[2-(3-fluorophenoxy)acetyl]-N′—[[(3S)-2-oxopyrrolidin-3-yl]methyl]-3,3a,4,5,6,6a-hexahydro-1H-cyclopenta[c]pyrrole-3-carbohydrazide] | 0.249 | 0.042 |  | 
15 | O=C1NCC[C@H]1CN(NC(=O)[C@H]1[C@@H]2CCC[C@@H]2CN1C(=O)COc1cccc(F)c1)C(=O)[C@H](F)Cl [Example 88b, (3R,3aR,6aS)—N′-[(2R)-2-chloro-2-fluoro-acetyl]-2-[2-(3-fluorophenoxy)acetyl]-N′—[[(3S)-2-oxopyrrolidin-3-yl]methyl]-3,3a,4,5,6,6a-hexahydro-1H-cyclopenta[c]pyrrole-3-carbohydrazide] | 0.155 | > 10 |  | 
16 | O=C1NCC[C@H]1CN(NC(=O)[C@@H]1[C@H]2CCC[C@H]2CN1C(=O)COc1cc(F)cc(F)c1)C(=O)[C@H](F)Cl [Example 89a, (3S,3aS,6aR)—N′-[(2R)-2-chloro-2-fluoro-acetyl]-2-[2-(3,5-difluorophenoxy)acetyl]-N′—[[(3S)-2-oxopyrrolidin-3-yl]methyl]-3,3a,4,5,6,6a-hexahydro-1H-cyclopenta[c]pyrrole-3-carbohydrazide] | > 10 | 0.051 |  | 
17 | O=C1NCC[C@H]1CN(NC(=O)[C@H]1[C@@H]2CCC[C@@H]2CN1C(=O)COc1cc(F)cc(F)c1)C(=O)[C@H](F)Cl [Example 89b, (3R,3aR,6aS)—N′-[(2R)-2-chloro-2-fluoro-acetyl]-2-[2-(3,5-difluorophenoxy)acetyl]-N′—[[(3S)-2-oxopyrrolidin-3-yl]methyl]-3,3a,4,5,6,6a-hexahydro-1H-cyclopenta[c]pyrrole-3-carbohydrazide] | 0.193 | > 10 |  | 
